The conditions of series [1]: Fe(III) chelation; cited from earlier work.
The conditions of series [2]: ligand 30 µmol kg^-1 ip at 1 h after iv ^238Pu(IV) citrate, kill at 24 h, reported previously, cited from earlier work; for percent of injected ^238Pu at 24 h, excreta: feces and GI contents / percent of injected ^238Pu at 24 h, excreta: urine 0-24 h / percent of injected ^238Pu at 24 h, tissues: kidneys: pooled samples.
Series [3] can be described thus: Solubility in water. In kind it is physicochemical. Particulars: in words.
Series [4] can be described thus: Promoting excretion of 241Am(III) in mice by injected ligand. It counts as in vivo. The conditions noted are these: Am(III), ligand 30 mmol.kg-1 i.p at 3 to 5 min after actinide i.v., kill at 24 h. From the text:
(§1) Animal studies were completed using methods detailed in Radiation Protection Dosimetry, in press, P. W. Durbin et al., "In Vivo Chelation of Am(III), Pu(IV), Np(V) and U(VI) in Mice by TREN-(Me-3,2-HOPO)"; Radiation Protection Dosimetry, 17, No. 1, 1989, p. 351, P. W. Durbin et al., "Removal of ^238Pu(IV) from Mice by Polycatechoylate, -Hydroxamate or -Hydroxypyridinonate Ligands"; Radiation Research, 99, 1984, p. 85, P. W. Durbin et al., "Specific Sequestering Agents for the Actinides ..."; Radiation Research, 99, 1984, p. 106, P. W. Durbin et al., "Removal of Pu and Am from Beagles and Mice ..."; Radiation Research, 81, 1980, p. 170, R. D. Lloyd et al., and P. W. Durbin et al., "Specific Sequestering Agents for the Actinides ...". The foregoing articles are hereby incorporated by reference.
Radionuclides used in the animal studies came from a variety of sources. However, they can be purchased commercially. The ^238Pu(IV) citrate and ^241Am(III) citrate solutions were prepared for animal injection by 8- to 10-fold dilution with 0.14M NaCl (pH 4) of concentrated stock solutions (0.08M sodium citrate buffer) that had been held in frozen storage at Lawrence Berkeley Laboratory (hereinafter LBL) for several years. [The ^238Pu(IV) was originally obtained from D. R. Atherton at the University of Utah Radiobiology Laboratory, Salt Lake City. The ^241Am(III) solution had been obtained many years earlier from the LBL Actinide Chemistry group.]
(§2) One of the comparative chelating agents TREN-Me-3,2-HOPO, was also tested for effectiveness in promoting excretion of ^241Am(III), ^237Np(V), and ^232U(VI) by injection into mice, as follows: Mice, in groups of five, each received an intravenous injection of (a) 1100 Bq of ^241AM(III) in 0.2 mL of citrate buffer, (b) 150 Bq of ^232UO2Cl2 plus 3.6 mg of ^235UO2Cl2 in 0.2 mL of saline, or (c) 200 Bq of ^237NpO2Cl (7.5 mg of ^237NpO2Cl) in 0.2 mL of saline. Three to five minutes later, […] of TREN-Me-3,2-HOPO was injected intraperitoneally in 0.5 mL of saline. The mice were killed 24 hours after the actinide injection, frozen, and dissected after partial thawing. The skeleton, soft tissues, and separated excreta were radioanalyzed by counting the ^241Am gamma rays, or the alpha particles emitted by ^237Np or ^232U (and its ingrowing daughters). Removal of those actinides from mice by injected TREN-Me-3,2-HOPO is summarized in Table 5, which also includes data for mice similarly treated with CaNa3-DTPA and for actinide-injected controls. […] The structure of Am(III)-TREN-Me-3,2-HOPO is considered to resemble that of the Gd(III) complexes (see example 20). Complexation of the fraction of Np(V) that is reduced in vivo to Np(IV) is considered to resemble that of Pu(IV). Complexation of U(VI) is considered to take place through binding to UO2^2+.

Series [5] can be described thus: Promoting excretion of 237Np(V) in mice by injected ligand. It counts as in vivo. The conditions noted are these: Np(V), ligand 30 mmol.kg-1 i.p at 3 to 5 min after actinide i.v., kill at 24 h.
Source text: as §1
The ^237Np(V) was obtained from J. Bucher of the LBL Actinide Chemistry group as NpO2Cl in 0.1 M HCl. It was diluted to the desired radioactivity concentration in 0.14M NaCl and the pH was adjusted to about 4.5 with NaOH just before use.
as §2

Series [6] can be described thus: Promoting excretion of U(VI) in mice by injected ligand. It counts as in vivo. The conditions noted are these: U(VI), ligand 30 mmol.kg-1 i.p at 3 to 5 min after actinide i.v., kill at 24 h.
Source text: as §1
The ^232U was obtained from the Isotope Products Laboratory, Burbank, CA, and ^234,235U was obtained as U metal from long-held LBL storage. The two U sources were combined and dissolved in 6N HNO3, dried, and redissolved in 0.1 N HCl. The daughter radioactivities were removed by elution from a Dowex-50X4 column (22 cm length, 0.7 cm diameter, 1.5 mL·min^-1 flow rate) with 3.2N HCl. The U fractions (previously identified by a trial run with ^234,235U alone) were combined, dried, and redissolved in 0.14M NaCl at pH 5.5.
as §2

Marks after values point to notes of the source that are not given here.

In the case of `O=C(N[C@H]1COC(=O)[C@@H](NC(=O)c2cccc(O)c2O)COC(=O)[C@@H](NC(=O)c2cccc(O)c2O)COC1=O)c1cccc(O)c1O` [enterobacun], in series [1], the “formation constant Kf” value is reported as 10^49 and the pM was 35.5.

Regarding `O=C(NCCCN(CCCCN(CCCNC(=O)c1cccc(=O)n1O)C(=O)c1cccc(=O)n1O)C(=O)c1cccc(=O)n1O)c1cccc(=O)n1O` [3,4,3-LI(1,2-HOPO)], in series [2], the “percent of injected ^238Pu at 24 h, excreta: feces and GI contents” value is listed as 57% of injected ^238Pu; the “percent of injected ^238Pu at 24 h, excreta: urine 0-24 h” value is reported as 23% of injected ^238Pu; the “percent of injected ^238Pu at 24 h, tissues: kidneys” value (from here on “percent of injected ^238Pu … kidneys”) is listed as 0.2% of injected ^238Pu; the “percent of injected ^238Pu ± SD at 24 h, tissues: liver” value is 8.9 ± 1.7^d percent of injected ^238Pu. For the same molecule, in series [2], the “percent of injected ^238Pu ± SD at 24 h, tissues: skeleton” value was 7.5 ± 0.7^d percent of injected ^238Pu; the “percent of injected ^238Pu ± SD at 24 h, tissues: soft tissue” value is 1.6 ± 0.6^d percent of injected ^238Pu; the “percent of injected ^238Pu ± SD at 24 h, whole body” value is listed as 18 ± 1.7^d percent of injected ^238Pu.

Regarding `CC(=O)N(O)CCCCCNC(=O)CCC(=O)N(O)CCCCCNC(=O)CCC(=O)N(O)CCCCCNC(=O)c1cccc(=O)n1O` [DFO-(1,2-HOPO)], in series [2], the “percent of injected ^238Pu at 24 h, excreta: feces and GI contents” value was 46.7% of injected ^238Pu; the “percent of injected ^238Pu at 24 h, excreta: urine 0-24 h” value was 9.5% of injected ^238Pu; the “percent of injected ^238Pu ± SD at 24 h, tissues: liver” value was 5.1 ± 2.2^d percent of injected ^238Pu; the “percent of injected ^238Pu ± SD at 24 h, tissues: skeleton” value is on record as 6.0 ± 0.5^d percent of injected ^238Pu. In series [2], the “percent of injected ^238Pu ± SD at 24 h, tissues: soft tissue” value is recorded as 2.3 ± 0.5^d percent of injected ^238Pu and the “percent of injected ^238Pu ± SD at 24 h, whole body” value was 13 ± 2.9^d percent of injected ^238Pu.

Take `CC(=O)N(O)CCCCCNC(=O)CCC(=O)N(O)CCCCCNC(=O)CCC(=O)N(O)CCCCCNC(=O)c1ccn(C)c(=O)c1O` [DFO-Me-3,2-HOPO]: in series [2], the “percent of injected ^238Pu at 24 h, excreta: feces and GI contents” value is 26.4% of injected ^238Pu; the “percent of injected ^238Pu at 24 h, excreta: urine 0-24 h” value was 21% of injected ^238Pu; the “percent of injected ^238Pu … kidneys” value is reported as 3.0% of injected ^238Pu; the “percent of injected ^238Pu ± SD at 24 h, tissues: liver” value is 13 ± 3.5% of injected ^238Pu. Also, in series [2], the “percent of injected ^238Pu ± SD at 24 h, tissues: skeleton” value is on record as 17 ± 2.4% of injected ^238Pu; the “percent of injected ^238Pu ± SD at 24 h, tissues: soft tissue” value is reported as 19 ± 3.0% of injected ^238Pu; the “percent of injected ^238Pu ± SD at 24 h, whole body” value is recorded as 53 ± 3.4% of injected ^238Pu.

In the case of `CCCNC(=O)c1ccn(C)c(=O)c1O` [3-hydroxy-1-methyl-4(1-propylcarbamoyl)-2(1H)-pyridinone], the solubility in water entry in series [3] is given as “very soluble in water”.

Consider `CC(=O)N(O)CCCCCNC(=O)CCC(=O)N(O)CCCCCNC(=O)CCC(=O)N(O)CCCCCN` [DFO, desferrioxamine B], for which, in series [2], the “percent of injected ^238Pu at 24 h, excreta: feces and GI contents” value was 15.1% of injected ^238Pu; the “percent of injected ^238Pu at 24 h, excreta: urine 0-24 h” value is 38% of injected ^238Pu; the “percent of injected ^238Pu … kidneys” value was 1.8% of injected ^238Pu; the “percent of injected ^238Pu ± SD at 24 h, tissues: liver” value is 19 ± 13% of injected ^238Pu. Besides, in series [2], the “percent of injected ^238Pu ± SD at 24 h, tissues: skeleton” value is given as 20 ± 11% of injected ^238Pu; the “percent of injected ^238Pu ± SD at 24 h, tissues: soft tissue” value is given as 4.5 ± 1.4% of injected ^238Pu; the “percent of injected ^238Pu ± SD at 24 h, whole body” value is given as 45 ± 2.5% of injected ^238Pu.

`O=C([O-])CN(CCN(CC(=O)[O-])CC(=O)[O-])CCN(CC(=O)[O-])CC(=O)[O-].[Ca+2].[Na+].[Na+].[Na+]` [CaNa3-DTPA, reference compound]: in series [4], the “percent of injected actinide ± SD at 24 h, tissues: liver” value is recorded as 13 ± 1.5^d percent of injected actinide; the “percent of injected actinide ± SD at 24 h, tissues: skeleton” value is 8.5 ± 0.9^d percent of injected actinide; the “percent of injected actinide ± SD at 24 h, tissues: soft tissue” value was 1.9 ± 0.3^d percent of injected actinide; the “percent of injected actinide ± SD at 24 h, whole body” value was 24 ± 1.3^d percent of injected actinide. In series [4] (pooled), the “percent of injected actinide at 24 h, excreta: feces and GI contents” value is 8.0% of injected actinide; the “percent of injected actinide at 24 h, excreta: urine 0-24 h” value is on record as 68% of injected actinide; the “percent of injected actinide at 24 h, tissues: kidneys” value was 0.4% of injected actinide. For the same molecule, in series [2], the “percent of injected ^238Pu at 24 h, excreta: feces and GI contents” value is listed as 5.1% of injected ^238Pu; the “percent of injected ^238Pu at 24 h, excreta: urine 0-24 h” value was 61% of injected ^238Pu; the “percent of injected ^238Pu ± SD at 24 h, tissues: liver” value is 17 ± 4.0% of injected ^238Pu; the “percent of injected ^238Pu ± SD at 24 h, tissues: skeleton” value was 12 ± 2.3% of injected ^238Pu. In series [2], the “percent of injected ^238Pu ± SD at 24 h, tissues: soft tissue” value is on record as 3.5 ± 1.6% of injected ^238Pu and the “percent of injected ^238Pu ± SD at 24 h, whole body” value is 33 ± 6.6% of injected ^238Pu. In series [5], the “percent of injected actinide ± SD at 24 h, tissues: liver” value is reported as 14 ± 5.7% of injected actinide; the “percent of injected actinide ± SD at 24 h, tissues: skeleton” value was 40 ± 4.4% of injected actinide; the “percent of injected actinide ± SD at 24 h, tissues: soft tissue” value was 3.5 ± 0.9% of injected actinide; the “percent of injected actinide ± SD at 24 h, whole body” value is on record as 58 ± 8.0% of injected actinide. Besides, in series [5] (pooled), the “percent of injected actinide at 24 h, excreta: feces and GI contents” value was 1.5% of injected actinide; the “percent of injected actinide at 24 h, excreta: urine 0-24 h” value is recorded as 40% of injected actinide; the “percent of injected actinide at 24 h, tissues: kidneys” value is listed as 1.3% of injected actinide. In series [6], the “percent of injected actinide ± SD at 24 h, tissues: kidneys” value was 17 ± 2.8% of injected actinide; the “percent of injected actinide ± SD at 24 h, tissues: skeleton” value is reported as 19 ± 3.0% of injected actinide; the “percent of injected actinide ± SD at 24 h, tissues: soft tissue” value is 2.2 ± 0.1% of injected actinide; the “percent of injected actinide ± SD at 24 h, whole body” value is listed as 38 ± 0.7% of injected actinide. Besides, the “percent of injected actinide at 24 h, combined excreta” value in series [6] (feces, GI contents and urine combined) is recorded as 62^f percent of injected actinide. For the same molecule, in series [6] (livers of some groups pooled), the “percent of injected actinide ± SD at 24 h, tissues: liver” value is listed as 1.0^c percent of injected actinide.

Values taken from patent EP0840727B1, “3-HYDROXY-2(1H)-[…] AGENTS” (priority 1995, dated 1997).
